# Biological target: T1, RNR (RNR1:RNR2 1:1) (Homo sapiens, UniProt P23921)
# T1 sequence (P23921 1-792): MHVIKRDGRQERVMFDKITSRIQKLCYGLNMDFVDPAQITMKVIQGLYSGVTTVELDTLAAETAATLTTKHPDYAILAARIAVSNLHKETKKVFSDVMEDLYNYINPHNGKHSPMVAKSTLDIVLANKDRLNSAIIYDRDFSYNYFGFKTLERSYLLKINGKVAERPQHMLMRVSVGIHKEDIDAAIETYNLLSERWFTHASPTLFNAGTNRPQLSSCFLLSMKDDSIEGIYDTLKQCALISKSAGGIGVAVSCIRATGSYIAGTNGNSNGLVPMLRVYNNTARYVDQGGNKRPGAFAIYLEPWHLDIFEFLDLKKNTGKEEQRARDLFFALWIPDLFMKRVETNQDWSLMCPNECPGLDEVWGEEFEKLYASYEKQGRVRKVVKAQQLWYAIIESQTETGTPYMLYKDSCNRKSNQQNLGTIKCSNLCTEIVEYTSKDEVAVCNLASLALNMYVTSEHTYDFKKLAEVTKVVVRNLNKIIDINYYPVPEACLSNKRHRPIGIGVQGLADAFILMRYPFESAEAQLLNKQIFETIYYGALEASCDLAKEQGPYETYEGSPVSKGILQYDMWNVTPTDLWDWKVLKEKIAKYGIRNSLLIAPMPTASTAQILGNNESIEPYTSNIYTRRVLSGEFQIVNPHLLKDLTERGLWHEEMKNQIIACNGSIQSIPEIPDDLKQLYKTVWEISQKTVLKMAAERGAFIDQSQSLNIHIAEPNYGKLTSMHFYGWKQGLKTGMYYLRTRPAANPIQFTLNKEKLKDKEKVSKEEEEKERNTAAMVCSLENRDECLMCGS
# Assay: RNR enzyme activity, rapid-fire mass spectrometry (RFMS) assay
# Format: biochemical
# Settings: RNR 50 nM, CDP 5 μM, ATP 1 mM, 37° C., 45 min, compounds screened up to 50 μM, read-out: RF/MS IC50
# Outline: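 Human RNR1:RNR2 (1:1, 50 nM) pre-incubated 15 min at room temperature with compound, then reacted with 5 μM CDP and 1 mM ATP, no NADPH, for 45 min at 37 °C. Stopped with 6% HCOOH; turnover read by rapid-fire mass spectrometry; Triapine and hydroxyurea as reference compounds.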
row,SMILES,IC50 [µM]
1,"Cc1ccc(F)c(C(C)[C@H](NS(=O)(=O)N2CCC(c3ncc[nH]3)CC2)c2n[nH]c(=O)o2)c1C (stereo partly drawn) [Example 90, N-((1S)-2-(6-fluoro-2,3-dimethylphenyl)-1-(5-oxo-4,5-dihydro-1,3,4-oxadiazol-2-yl)propyl)-4-(1H-imidazol-2-yl)piperidine-1-sulfonamide]",1 to 10
2,"Cc1ccc(F)c(C(C)[C@H](NS(=O)(=O)N2CCC3(CCOCC3)CC2)c2n[nH]c(=O)o2)c1C (stereo partly drawn) [Example 91, N-((1S)-2-(6-fluoro-2,3-dimethylphenyl)-1-(5-oxo-4,5-dihydro-1,3,4-oxadiazol-2-yl)propyl)-3-oxa-9-azaspiro[5.5]undecane-9-sulfonamide]",0.1 to 1
3,"COC(=O)C1CC12CCN(S(=O)(=O)N[C@H](c1n[nH]c(=O)o1)C(C)c1c(F)ccc(C)c1C)CC2 (stereo partly drawn) [Example 92, methyl 6-(N-((1S)-2-(6-fluoro-2,3-dimethylphenyl)-1-(5-oxo-4,5-dihydro-1,3,4-oxadiazol-2-yl)propyl)sulfamoyl)-6-azaspiro[2.5]octane-1-carboxylate]",0.1 to 1
4,"Cc1ccc(F)c(C(C)[C@H](NS(=O)(=O)N2CCC3(CCC(=O)N3C)CC2)c2n[nH]c(=O)o2)c1C (stereo partly drawn) [Example 93, N-((1S)-2-(6-fluoro-2,3-dimethylphenyl)-1-(5-oxo-4,5-dihydro-1,3,4-oxadiazol-2-yl)propyl)-1-methyl-2-oxo-1,8-diazaspiro[4.5]decane-8-sulfonamide]",1 to 10
5,"Cc1ccc(F)c([C@@H](C)[C@H](NS(=O)(=O)N2CCC3(CC2)CC(F)(F)C3)c2n[nH]c(=O)o2)c1C [Example 94, 2,2-difluoro-N-((1S,2R)-2-(6-fluoro-2,3-dimethylphenyl)-1-(5-oxo-4,5-dihydro-1,3,4-oxadiazol-2-yl)propyl)-7-azaspiro[3.5]nonane-7-sulfonamide]",0.1 to 1
6,"Cc1ccc(F)c([C@H](C)[C@H](NS(=O)(=O)N2CCC3(CC2)CC(F)(F)C3)c2n[nH]c(=O)o2)c1C [Example 95, 2,2-difluoro-N-((1S,2S)-2-(6-fluoro-2,3-dimethylphenyl)-1-(5-oxo-4,5-dihydro-1,3,4-oxadiazol-2-yl)propyl)-7-azaspiro[3.5]nonane-7-sulfonamide]",1 to 10
7,"Cc1ccc(F)c(C(C)[C@H](NS(=O)(=O)N2CCC(n3cccn3)CC2)c2n[nH]c(=O)o2)c1C (stereo partly drawn) [Example 96, N-((1S)-2-(6-fluoro-2,3-dimethylphenyl)-1-(5-oxo-4,5-dihydro-1,3,4-oxadiazol-2-yl)propyl)-4-(1H-pyrazol-1-yl)piperidine-1-sulfonamide]",1 to 10
8,"Cc1ccc(F)c([C@@H](C)[C@H](NS(=O)(=O)N2CCC(Cl)(Cl)CC2)c2n[nH]c(=O)o2)c1C [Example 97, 4,4-dichloro-N-((1S,2R)-2-(6-fluoro-2,3-dimethylphenyl)-1-(5-oxo-4,5-dihydro-1,3,4-oxadiazol-2-yl)propyl)piperidine-1-sulfonamide]",≤ 0.1
9,"Cc1ccc(F)c([C@H](C)[C@H](NS(=O)(=O)N2CCC(Cl)(Cl)CC2)c2n[nH]c(=O)o2)c1C [Example 98, 4,4-dichloro-N-((1S,2S)-2-(6-fluoro-2,3-dimethylphenyl)-1-(5-oxo-4,5-dihydro-1,3,4-oxadiazol-2-yl)propyl)piperidine-1-sulfonamide]",1 to 10
10,"Cc1ccc(F)c(C(C)[C@H](NS(=O)(=O)N2CCC(Cl)(Cl)C(C)C2)c2n[nH]c(=O)o2)c1C (stereo partly drawn) [Example 99, 4,4-dichloro-N-((1S)-2-(6-fluoro-2,3-dimethylphenyl)-1-(5-oxo-4,5-dihydro-1,3,4-oxadiazol-2-yl)propyl)-3-methylpiperidine-1-sulfonamide]",0.1 to 1
11,"Cc1ccc(F)c([C@@H](C)[C@H](NS(=O)(=O)N2CCC(Br)CC2)c2n[nH]c(=O)o2)c1C [Example 100, 4-bromo-N-((1S,2R)-2-(6-fluoro-2,3-dimethylphenyl)-1-(5-oxo-4,5-dihydro-1,3,4-oxadiazol-2-yl)propyl)piperidine-1-sulfonamide]",0.1 to 1
